From article PMC6546350 (RNA Biology, 2019)

Target: T1, RlmJ (Escherichia coli, UniProt P37634)
T1 sequence (P37634 1-280): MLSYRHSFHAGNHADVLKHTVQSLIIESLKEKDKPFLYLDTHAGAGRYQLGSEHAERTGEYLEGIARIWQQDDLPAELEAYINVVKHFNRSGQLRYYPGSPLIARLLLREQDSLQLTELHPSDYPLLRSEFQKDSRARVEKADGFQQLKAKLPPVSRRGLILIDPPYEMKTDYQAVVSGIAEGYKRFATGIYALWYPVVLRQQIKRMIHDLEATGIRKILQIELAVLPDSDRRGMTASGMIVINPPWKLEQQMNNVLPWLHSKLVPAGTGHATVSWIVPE
Assay: ITC and DSF
Type: binding

Work on `Nc1ncnc2c1ncn2[C@@H]1O[C@H](C[C@@H](N)CC[C@H](N)C(=O)O)[C@@H](O)[C@H]1O` [sinefungin] yielded a Kd of 1.7 ± 0.2 µM.
